In patent US5854010A, “Bioassay for detecting 2,3,7,8-tetrachlorodibenzo-para-dioxin and TCDD-like compounds and novel recombinant cell line useful therefor” (priority 1997, dated 1998):
pEC50: −log10 of the molar value.

Assays:
H1L1.1 cells = assay: Dose response of luciferase induction, 24 h (FIGS. 3-6, Table 3); format: cell-based, mouse; settings: for Induced luciferase activity, TCDD reference: 1 nM TCDD in DMSO
Method: The graph of FIG. 3 illustrates the dose dependence of luciferase induction in the mouse H1L1.1 cells measured following […] of the cells to increasing concentrations of TCDD or other toxic compounds (which others are discussed in more detail below).
More particularly, the stable cell clones for the mouse H1L1.1 cells (about 90% confluent) were plated into six-well microplates (purchased from Corning) and incubated for 24 hours with the indicated concentration of the particular toxin solubilized in DMSO. Then, the cells were lysed with 100 μl of lysis buffer and luciferase activity was determined as described above. Values represent the mean ± the standard evaluation of at least triplicate determinations.
As set out in Table 3, the responsiveness and sensitivity of the mouse H1L1.1 cells was compared to the responsiveness and sensitivity of certain other published PCDH cell bioassay systems. The other systems were a recombinant HepG2 (101L) cell line that induces firefly luciferase (see, Postlind et al., supra), a recombinant Hepa1 (T13) cell line that induces PAP activity (see El-Fouly et al., supra), and a rat H4IIE cell line that induces EROD activity (see, Kennedy et al., supra). The ED50 values were calculated by probit analysis of the dose-response data.
As set out in the graphs of FIGS. 3-6, since one use of the stably transfected mouse H1L1.1 cell lines is for detection and relative quantitative analysis of TCDD and various dioxin-like compounds (i.e., AhR ligands), the ability of various compounds besides TCDD to induce luciferase activity in the mouse H1L1.1 cells was examined. The experiments performed to determine the dose-response curves for the toxins other than TCDD set out in the graphs of FIGS. 3-6 were performed in essentially the same manner as the experiments described above to determine the dose response curve of TCDD set out in the graph of FIG. 3.
Specifically, with respect to the data illustrated in the graph of FIG. 3, cells were incubated with increasing concentrations of test chemical and luciferase activity determined after 24 hours.
It should be noted that the low numerical values of luciferase activity from induction by various PCBs reported in FIGS. 4 and 5, compared to the values reported in the other figures, are not due to actual low levels of luciferase induction, but to the fact that the detection of luminescence in these experiments was performed using a different instrument from that used in the other experiments.
However, the relative magnitude of luciferase induction by the mono-ortho-PCBs (FIG. 4) and the AROCLORS (FIG. 5) was established by directly comparing the resulting activity to that produced by a maximally inducing dose of TCDD (1 nM solubilized in DMSO) measured in the same instrument.

[1] = test system: Hepa1-TAO cells (reduced levels of AhR); assay: TCDD-inducible luciferase activity, transient transfection with pGudLuc1.1; format: cell-based, mouse
Method: (§1) In general, the expression vectors pGudLuc1.0 and pGudLuc1.1 were prepared as follows. A 1330-bp HindIII fragment or an 1810-bp HindIII fragment isolated from the plasmid, pMpap1.0 or pMpap1.1, respectively (see, El-Fouly et al., supra), was subcloned into the HindIII site immediately upstream of the luciferase gene in the plasmid pGL2-basic (purchased from Promega).
(§2) More specifically, the following cells were obtained from the source indicated. Wild-type and AhR-defective (BPRc1 and TAO, respectively) mouse hepatoma (Hepa1c1c7) cells (Hepa1), derived from a C57B1 mouse liver tumor, were obtained from J. P. Whitlock, Jr. (Stanford University). These cells were grown as previously described by Miller et al. in "Biochemical and Genetic Analysis of Variant Mouse Hepatoma Cells Defective in the Induction of Benzo(a)pyrene Metabolizing Enzyme Activity", J. Biol. Chem., Vol. 258, pp. 3523-3527 (1983). Additionally, mouse hepatoma (MLE/BV) cells, derived from a spontaneously immortalized C3H/HeN mouse liver cell, were obtained from B. V. Madhukar (Indiana University School of Medicine, Indianapolis, Ind.) and were grown as described for the Hepa1 cells. Rat hepatoma (H4IIe) cells, guinea pig intestinal adenocarcinoma (GPC16) cells, hamster lung (AHL) cells, human hepatoma (HepG2) cells, human breast tumor (MCF7) cells, and human intestinal epithelial (LS180) cells were obtained from the American Type Culture Collection (Rockville, Md.). Until transfection, all of the cells were maintained according to their respective cell-type-specific culture protocols.
(§3) Transfection was accomplished as follows. Using polybrene as previously described by Helferich et al. in "Photooxidized Products of Tryptophan Can Act as Dioxin Agonists", Mol. Pharmacol., Vol. 40, pp. 674-678 (1991), plates of cells (approximately 80% confluent) were transiently transfected with the desired plasmid (15 μg). Then, the transfected cells were allowed to grow for 48 hours, followed by the addition of either DMSO (1 μl/ml) or TCDD (1 nM) solubilized in DMSO, which was followed by incubation for 24 hours. Next, the plates were transferred onto ice, and the media were removed, after which the plates were rinsed twice with cold PBS. Then, 200 μl of luciferase lysis buffer (purchased from Promega) was used to lyse the cells. The lysed cell samples were collected and transferred into a microfuge tube. Cell debris was pelleted by centrifugation, and the supernatants were collected. The supernatant samples were assayed for TCDD-inducible luciferase activity in the following manner.
(§4) Using the stabilized luciferase assay system (purchased from Promega), luciferase activity in an aliquot of the cleared lysed cell supernatant (20 μl) was determined by mixing it with 100 µl of luciferase assay reagent (purchased from Promega) and measuring the resulting luminescence in a Turner Luminometer or Dynatech ML3000 microplate luminometer (light output was integrated over 1 minute after a delay time of 30 seconds).
(§5) Using a microplate adaptation of the method reported by Bradford in "A Rapid Sensitive Method for the Quantitation of Microgram Quantities of Protein Utilizing the Principle of Protein-Dye Binding", Anal. Biochem., […], pp. 248-254 (1976), luciferase activity was standardized to the protein concentration of the supernatant (with bovine serum albumin as the protein standard). Because of instrument differences in luminescence measurement and data output, luciferase activity was determined as relative light units (RLU) per microgram of protein, which was converted to milligram of protein as reported in the Tables below.

[2] = test system: Hepa1-BPRc1 cells (defective arnt protein); assay: as above; format: cell-based, mouse
Method: as §1, §2, §3, §4, §5

MLE-BV cells = assay: as above; format: cell-based, mouse
Method: as §1, §2, §3, §4, §5

[3] = test system: mouse hepatoma Hepa1c1c7 cells (wild type); assay: TCDD-inducible luciferase activity, transient transfection with pGudLuc1.0 (lacks DREs); format: cell-based
Method: as §1
More specifically, the following cells were obtained from the source indicated. Wild-type and AhR-defective (BPRc1 and TAO, respectively) mouse hepatoma (Hepa1c1c7) cells (Hepa1), derived from a C57B1 mouse liver tumor, were obtained from J. P. Whitlock, Jr. (Stanford University). These cells were grown as previously described by Miller et al. in "Biochemical and Genetic Analysis of Variant Mouse Hepatoma Cells Defective in the Induction of Benzo(a)pyrene Metabolizing Enzyme Activity", J. Biol. Chem., Vol. 258, pp. 3523-3527 (1983). […]
as §4, §5

[4] = Mus musculus, Luc1.1, TCDD 1 nM vs DMSO

Compound: Clc1cc2c(cc1Cl)Oc1cc(Cl)c(Cl)cc1O2 [TCDD, 2,3,7,8-tetrachlorodibenzo-para-dioxin]
- Induced luciferase activity, TCDD reference (H1L1.1 cells; instrument of FIG. 4): 2.25±0.6
- Induced luciferase activity, TCDD reference (H1L1.1 cells; instrument of FIG. 5): 0.95±0.07
- pEC50 (H1L1.1 cells; Mus musculus, 24 h, FIG. 3): ~10.70
- fold induction at 0.001 µM (H1L1.1 cells; Mus musculus, by 1.0 nM TCDD, 24 h, FIG. 3, read-out: Maximal induction of luciferase activity): 80
- Dose dependence of luciferase induction (H1L1.1 cells; TCDD, 24 h, FIG. 3): dose dependent
- Luciferase activity, TCDD in DMSO ([1]; Luc1.1, TCDD 1 nM, 24 h): 1.8 RLU/mg protein
- fold induction [1, 4]: 4.5
- Inducibility of luciferase activity ([1]; pGudLuc1.1, TCDD 1 nM): reduced inducibility
- Luciferase activity, TCDD in DMSO ([2]; Luc1.1, TCDD 1 nM, 24 h): 0.8 RLU/mg protein
- fold induction [2, 4]: 1.6
- Induction of luciferase activity ([2]; pGudLuc1.1, TCDD 1 nM): failure of TCDD treatment to induce luciferase activity
- Luciferase activity, TCDD in DMSO (MLE-BV cells; Luc1.1, TCDD 1 nM, 24 h): 13.2 RLU/mg protein
- fold induction (MLE-BV cells; [4]): 66
- Luciferase activity, TCDD in DMSO ([3]; Luc1.0, TCDD 1 nM, 24 h, mean of triplicate transfections): 0.1 RLU/mg protein
- fold induction at 0.001 µM ([3]; Mus musculus, Hepa-1c1c7, Luc1.0, TCDD 1 nM vs DMSO): 1
- Induction of luciferase activity ([3]; pGudLuc1.0, TCDD 1 nM): failed to induce luciferase activity
